Test results taken from patent US20240024520A1, “AUTONOMOUS KNOB DOMAIN PEPTIDES” (UCB BIOPHARMA SRL, priority 2020, published 2024).
Where two headings read alike, the source gives them in different places. Bridge positions count the residues as written; N and C are the ends. Ends that are not written are not given here. Peptide text beside a SMILES is read from it.

How the values were obtained:
rabbit erythrocytes = assay: Alternative pathway haemolysis assay; type: cell-based; conditions: normal human sera; result in words
Protocol: (§1) Haemolysis assays: For AP, 50 μL of 24% normal human sera (Complement Technology), 50 of 20 mM MgEGTA (Complement Technology), and 48 μL of GVB0 buffer (0.1% gelatin, […], 145 mM NaCl, 0.025% NaN3, pH 7.3, Complement Technology) were aliquoted into a single well of a 96-well tissue culture plate (USA Scientific) then mixed with 2 μL of inhibitors serially diluted in DMSO. Following equilibration for 15 minutes at room temperature, 50 μL of rabbit erythrocytes (Complement Technology), at 2.5×10^7 per well, were added to the plates, which were then incubated at 37° C. for 30 minutes. Plates were centrifuged at 1,000×g for 3 min and 100 μL of supernatant was collected, transferred to another 96-well tissue culture treated plate, and absorbance was measured at 412 nm. For CP, […], 48 μL of GVB++ buffer (0.1% gelatin, 5 mM Veronal, 145 mM NaCl, 0.025% NaN3, pH 7.3 with 0.15 mM CaCl2 and 0.5 mM MgCl2, Complement Technology) and 2 μL of inhibitors serially diluted in DMSO were aliquoted into a single well and equilibrated as described. Next, 100 μL of antibody-sensitized sheep red blood cells (Complement Technology) at 5×10^7 per well were added to the plate, which was then incubated at 37° C. for 1 hour. Samples were subsequently processed as described.

[1] = system: Classical pathway C5b deposition; assay: Classical pathway C5b (neo-epitope) deposition ELISA, SVAR kit; type: biochemical, human; conditions: chemFE peptides, Example 10; result in words
Source text: (§2) To elucidate the functional consequences of the knob domain peptides binding to human C5, we performed complement activation assays using the SVAR complement activation ELISA which measured CP (Classical Pathway) and AP (Alternative Pathway) activation in human serum, through formation of the C5b neo-epitope. We also developed orthogonal ELISA assays which measured total complement and AP specific mediated C3b and MAC (Membrane Attack Complex) deposition. For all activation conditions, we also tracked C5a release via ELISA.
(§3) For the C5b ELISA, assays were run using the CP and AP Complement functional ELISA kits (SVAR), as per the manufacturer's protocol. For sample preparation: serum was diluted as per the respective protocol for the CP and AP assays. Titrations of peptides were prepared and allowed to incubate for 15 minutes at room temperature, prior to plating.
(§4) Functional activity of chemically derived knob domain peptides was confirmed in a complement activation ELISAs which measured inhibition of C5b neoepitope deposition.
(§5) Finally, we tested our constructs in AP and CP complement activation ELISAs, which measured C5b neoepitope deposition.
(§6) Complement ELISA: assays were run using the CP and AP Complement functional ELISA kits (SVAR, COMPL 300 RUO), as per the manufacturer's protocol. For sample preparation, serum was diluted as per the respective protocol for the CP and AP assays; serial dilutions of peptides were prepared and allowed to incubate with serum for 15 minutes at room temperature, prior to plating.

[2] = system: Alternative pathway C5b deposition; assay: Alternative pathway C5b (neo-epitope) deposition ELISA, SVAR kit; type: biochemical, human; conditions: chemFE peptides, Example 10; result in words
Source text: as §2, §3, §4, §5, §6

C5 [3] = biological target: T1, C5 (Homo sapiens, UniProt P01031); assay: Biacore multi-cycle kinetics on human C5; type: binding; conditions: for mean stoichiometric ratio: measured Rmax divided by theoretical Rmax; for binding to human C5: chemical knob domains and variants, result in words
T1 sequence (P01031 19-1676): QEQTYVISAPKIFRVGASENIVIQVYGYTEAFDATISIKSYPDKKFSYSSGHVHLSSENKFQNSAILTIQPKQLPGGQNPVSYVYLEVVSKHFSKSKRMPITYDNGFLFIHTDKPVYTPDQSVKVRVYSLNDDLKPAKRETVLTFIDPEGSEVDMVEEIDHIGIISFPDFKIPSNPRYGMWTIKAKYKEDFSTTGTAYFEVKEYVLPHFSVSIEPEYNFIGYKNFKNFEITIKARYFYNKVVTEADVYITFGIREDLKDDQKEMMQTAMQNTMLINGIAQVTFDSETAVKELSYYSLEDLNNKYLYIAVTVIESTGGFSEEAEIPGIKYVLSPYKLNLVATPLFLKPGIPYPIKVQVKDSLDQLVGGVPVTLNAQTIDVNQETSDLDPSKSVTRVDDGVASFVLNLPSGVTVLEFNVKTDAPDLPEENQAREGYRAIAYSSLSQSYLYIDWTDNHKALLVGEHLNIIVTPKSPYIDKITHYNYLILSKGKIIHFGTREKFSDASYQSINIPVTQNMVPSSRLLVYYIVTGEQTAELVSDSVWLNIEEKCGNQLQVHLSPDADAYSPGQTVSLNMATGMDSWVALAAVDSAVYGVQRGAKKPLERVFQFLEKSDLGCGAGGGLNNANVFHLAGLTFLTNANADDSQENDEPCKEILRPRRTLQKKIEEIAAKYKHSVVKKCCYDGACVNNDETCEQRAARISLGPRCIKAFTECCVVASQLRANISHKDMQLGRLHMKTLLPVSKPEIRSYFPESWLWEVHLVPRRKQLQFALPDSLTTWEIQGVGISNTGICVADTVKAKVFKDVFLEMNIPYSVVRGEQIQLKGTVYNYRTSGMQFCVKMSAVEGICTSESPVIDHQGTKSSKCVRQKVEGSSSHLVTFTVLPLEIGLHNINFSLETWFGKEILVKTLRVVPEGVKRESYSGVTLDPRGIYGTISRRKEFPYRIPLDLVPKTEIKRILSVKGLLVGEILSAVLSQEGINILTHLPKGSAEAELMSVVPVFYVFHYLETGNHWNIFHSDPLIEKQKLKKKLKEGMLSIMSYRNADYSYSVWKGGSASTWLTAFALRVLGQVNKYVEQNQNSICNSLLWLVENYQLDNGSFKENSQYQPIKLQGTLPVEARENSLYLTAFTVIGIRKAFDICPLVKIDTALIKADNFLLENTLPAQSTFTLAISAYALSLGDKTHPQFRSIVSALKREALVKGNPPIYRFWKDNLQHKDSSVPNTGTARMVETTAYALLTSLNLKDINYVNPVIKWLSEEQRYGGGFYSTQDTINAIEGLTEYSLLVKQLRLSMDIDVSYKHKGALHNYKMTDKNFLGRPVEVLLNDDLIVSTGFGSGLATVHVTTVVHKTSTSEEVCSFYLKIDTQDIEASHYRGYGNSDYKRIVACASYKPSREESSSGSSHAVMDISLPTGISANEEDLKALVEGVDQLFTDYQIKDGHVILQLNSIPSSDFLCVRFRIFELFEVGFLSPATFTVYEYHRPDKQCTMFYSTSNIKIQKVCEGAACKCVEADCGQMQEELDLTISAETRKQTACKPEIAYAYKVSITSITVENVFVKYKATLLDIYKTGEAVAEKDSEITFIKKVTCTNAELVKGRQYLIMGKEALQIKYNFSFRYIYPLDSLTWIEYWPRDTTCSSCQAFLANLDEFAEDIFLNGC
Protocol: Binding of knob domain peptides to human C5 was measured by SPR, using a multi-cycle kinetics method as follows:
(§7) Kinetics were measured using a Biacore 8K (GE Healthcare) with a CM5 chip, which was prepared as follows: EDC/NHS was mixed at 1:1 ratio (flow rate, 10 μL/min; contact time, 30 seconds), human C5 protein at 1 μg/mL in pH 4.5 sodium-acetate buffer, were injected over flow cell one only (flow rate, 10 μL/min; contact time, 60 seconds). Final immobilization levels in the range of 2000-3000 response units (RU) were obtained, to yield theoretical Rmax values of ˜50-60 RU. Serial dilutions of peptide were prepared in HBS-EP buffer and injected (flow rate, 30 μL/min; contact time, 240 seconds; dissociation time, 6000 seconds). After each injection, the surface was regenerated with two sequential injections of 2M MgCl2 (flow rate, […]; contact time, 30 seconds). Binding to the reference surface was subtracted, and the data were fitted to a single site binding model, using Biacore evaluation software.

C5 [4] = biological target: T1, C5; assay: Biacore (SPR) single-cycle kinetics on immobilised C5; type: binding
Protocol: Binding to C5 was measured using surface plasmon resonance (SPR) single-cycle kinetics as described below.
Biacore single-cycle kinetics. Using a Biacore 8K (GE Healthcare), C5 was immobilized on a CM5 chip by amine coupling. Flow cells were activated using EDC/NHS (flow rate, 10 μL/min; contact time, 30 s). C5, at 1 μg/mL in pH 4.5 Sodium-acetate buffer, was immobilized on flow cell two only (flow rate, 10 μL/min; contact time, 420 s). Finally, ethanolamine was applied to both flow cells (flow rate, 10 μL/min; contact time, 420 s). A final immobilization level of approximately 2,000 response units was obtained.
Single-cycle kinetics were measured using titrations in HBS-EP buffer. A high flow rate of 40 μL/min was used, with a contact time of 230 s and a dissociation time of 900 s. Binding to the reference surface was subtracted, and the data were fitted to a single-site binding model using Biacore evaluation software.
We measured individual rate constants (kon and koff) and equilibrium dissociation constants (KD) for knob domain peptides binding to C5 by the Biacore single-cycle kinetics method described above.
We used SPR single cycle kinetics to measure binding to human C5 protein.

[5] = system: antibody-sensitized sheep red blood cells; assay: Classical pathway haemolysis assay; type: cell-based; conditions: normal human sera; result in words
Protocol: as §1

rat C5 protein = rat C5 protein (Rattus norvegicus, UniProt P08650); assay: Biacore kinetics on rat C5 (cross-reactivity); type: binding; conditions: SPR
Chain of rat C5 protein (P08650 19-1681): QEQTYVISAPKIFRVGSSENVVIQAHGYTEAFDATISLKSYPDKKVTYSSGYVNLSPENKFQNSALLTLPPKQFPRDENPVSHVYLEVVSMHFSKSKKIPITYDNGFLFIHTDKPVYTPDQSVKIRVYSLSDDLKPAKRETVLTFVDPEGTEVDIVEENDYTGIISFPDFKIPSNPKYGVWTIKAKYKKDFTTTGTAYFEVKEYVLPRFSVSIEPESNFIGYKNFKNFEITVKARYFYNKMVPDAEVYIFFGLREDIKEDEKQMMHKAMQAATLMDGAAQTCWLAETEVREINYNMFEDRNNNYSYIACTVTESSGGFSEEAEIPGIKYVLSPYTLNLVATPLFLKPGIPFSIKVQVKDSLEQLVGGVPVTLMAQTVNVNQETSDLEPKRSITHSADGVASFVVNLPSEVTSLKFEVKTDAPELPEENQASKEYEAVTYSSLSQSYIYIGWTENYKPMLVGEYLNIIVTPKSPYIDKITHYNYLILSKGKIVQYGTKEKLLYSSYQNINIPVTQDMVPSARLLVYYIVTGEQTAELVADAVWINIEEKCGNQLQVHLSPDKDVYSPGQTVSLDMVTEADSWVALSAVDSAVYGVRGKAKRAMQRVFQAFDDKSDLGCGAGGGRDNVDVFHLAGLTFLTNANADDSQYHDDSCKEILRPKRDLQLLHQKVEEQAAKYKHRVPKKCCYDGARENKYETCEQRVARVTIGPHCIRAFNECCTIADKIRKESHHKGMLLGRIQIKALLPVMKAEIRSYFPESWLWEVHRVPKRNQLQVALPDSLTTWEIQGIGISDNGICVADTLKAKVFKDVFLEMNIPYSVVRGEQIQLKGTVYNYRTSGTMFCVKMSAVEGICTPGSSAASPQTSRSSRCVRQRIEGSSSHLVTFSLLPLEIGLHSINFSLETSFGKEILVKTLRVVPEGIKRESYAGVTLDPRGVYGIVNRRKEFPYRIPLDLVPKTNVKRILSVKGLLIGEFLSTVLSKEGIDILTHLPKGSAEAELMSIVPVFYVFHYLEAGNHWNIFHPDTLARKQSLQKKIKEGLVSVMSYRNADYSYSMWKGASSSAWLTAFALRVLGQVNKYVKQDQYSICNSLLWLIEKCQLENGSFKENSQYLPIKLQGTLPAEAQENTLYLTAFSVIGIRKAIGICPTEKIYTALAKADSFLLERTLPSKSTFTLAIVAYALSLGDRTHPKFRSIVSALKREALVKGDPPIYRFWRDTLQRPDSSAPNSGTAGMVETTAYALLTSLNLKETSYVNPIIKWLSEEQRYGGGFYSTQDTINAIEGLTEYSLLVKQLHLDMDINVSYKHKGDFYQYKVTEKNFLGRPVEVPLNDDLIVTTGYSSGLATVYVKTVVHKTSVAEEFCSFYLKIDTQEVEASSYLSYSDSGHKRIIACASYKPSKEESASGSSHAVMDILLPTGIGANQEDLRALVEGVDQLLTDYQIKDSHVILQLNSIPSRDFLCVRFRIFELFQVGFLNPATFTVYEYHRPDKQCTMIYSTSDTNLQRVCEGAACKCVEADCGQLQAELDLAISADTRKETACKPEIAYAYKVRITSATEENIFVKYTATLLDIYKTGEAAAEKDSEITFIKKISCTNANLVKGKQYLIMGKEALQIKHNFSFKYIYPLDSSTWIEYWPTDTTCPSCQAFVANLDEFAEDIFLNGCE
Protocol: as §7, with “rat” for “human”, “ug/mL” for “μg/mL”

[6] = read-out: mean Koff, multi-cycle kinetics, n = 3 experiments
[7] = read-out: mean Kon, multi-cycle kinetics, n = 3 experiments

| Compound | inhibition of haemolysis, AP (rabbit erythrocytes) | inhibition of CP, C5b deposition [1] | inhibition of AP, C5b deposition [2] | mean stoichiometric ratio (C5 [3]; n = 3 experiments) | koff (C5 [3]; [6]) | kon (C5 [3]; [7]) | binding to human C5 (C5 [3]) | inhibition of haemolysis, CP [5] | cross reactivity with rat C5 protein (rat C5 protein) | other results |
| --- | --- | --- | --- | --- | --- | --- | --- | --- | --- | --- |
| CC[C@H](C)[C@@H]1NC(=O)[C@H](C)NC(=O)[C@H](C(C)C)NC(=O)CNC(=O)[C@@H]2CSSC[C@@H](C(=O)NCC(=O)N[C@@H](Cc3c[nH]cn3)C(=O)N[C@@H](Cc3ccccc3)C(=O)N[C@@H](CC(C)C)C(=O)N[C@@H](CC(N)=O)C(=O)N[C@@H](CO)C(=O)NCC(=O)N3CCC[C@H]3C(=O)N[C@@H](CC(N)=O)C(=O)N[C@H](C(=O)N[C@@H](CO)C(=O)N3CCC[C@H]3C(=O)N[C@@H](Cc3ccc(O)cc3)C(=O)N[C@H](C(=O)N[C@@H](CO)C(=O)N[C@H](C(=O)O)[C@@H](C)O)C(C)C)[C@@H](C)CC)NC(=O)CNC(=O)[C@H](Cc3c[nH]c4ccccc34)NC(=O)[C@H](CCCNC(=N)N)NC(=O)CNC(=O)[C@H](CSSC[C@H](NC(=O)[C@@H](N)[C@@H](C)O)C(=O)N3CCC[C@H]3C(=O)N[C@@H](CCC(=O)O)C(=O)NCC(=O)N[C@@H](Cc3c[nH]c4ccccc34)C(=O)N[C@@H](CO)C(=O)N[C@@H](CCC(=O)O)C(=O)N2)NC(=O)[C@H](CCC(=O)O)NC(=O)[C@H](Cc2ccc(O)cc2)NC(=O)CNC(=O)[C@H](Cc2ccc(O)cc2)NC1=O [K92chemFE] (H-TCPEGWSECGVAIYGYECGRWGCGHFLNSGPNISPYVST-OH; disulfide 2-18, 9-23) | active solely in the AP-driven haemolysis assay | modest, dose dependent enhancement | partially inhibited | 0.40 |  |  |  |  |  | koff (C5 [3]; multi-cycle kinetics, n = 3 experiments, read-out: mean Koff): 0.000101 s⁻¹; kon (C5 [3]; multi-cycle kinetics, n = 3 experiments, read-out: mean Kon): 283000 M⁻¹ s⁻¹ |
| CSCC[C@@H]1NC(=O)[C@@H]2CCCN2C(=O)[C@@H]2CSSC[C@H](NC(=O)[C@@H](N)CO)C(=O)N3CCC[C@H]3C(=O)N[C@@H](CC(=O)O)C(=O)NCC(=O)N[C@@H](Cc3ccccc3)C(=O)N[C@@H](CO)C(=O)N[C@@H](Cc3ccc(O)cc3)C(=O)N[C@@H](CCCNC(=N)N)C(=O)N[C@@H](CO)C(=O)N[C@@H](Cc3c[nH]c4ccccc34)C(=O)N[C@@H](CC(=O)O)C(=O)N[C@@H](CC(=O)O)C(=O)N[C@@H](Cc3ccccc3)C(=O)N[C@@H](CSSC[C@@H](C(=O)N[C@@H](CC(C)C)C(=O)N[C@@H](C)C(=O)N3CCC[C@H]3C(=O)N[C@@H](CCCNC(=N)N)C(=O)N[C@@H](CC(N)=O)C(=O)O)NC(=O)[C@H](CCCNC(=N)N)NC(=O)CNC(=O)[C@H](C(C)C)NC1=O)C(=O)N2 [K149B] (H-SCPDGFSYRSWDDFCCPMVGRCLAPRN-OH; disulfide 2-16, 15-22; N-terminus assumed) |  |  |  | 0.81 | 0.00417 s⁻¹ | 15600 M⁻¹ s⁻¹ |  |  |  | Kd (C5 [3]): 269 nM; fold lower affinity (relative to K149chemSD-A) (C5 [3]): approximately 35 fold; Kd (C5 [4]): 246 nM; kd (C5 [4]; chemically derived knob domain peptides, n = 1): 0.00732 s⁻¹; kon (C5 [4]; read-out: ka): 29700 M⁻¹ s⁻¹ |
| CSCC[C@@H]1NC(=O)[C@@H]2CCCN2C(=O)[C@@H](NC(=O)[C@@H]2CSSC[C@H](NC(=O)[C@@H](N)CO)C(=O)N3CCC[C@H]3C(=O)N[C@@H](CC(=O)O)C(=O)NCC(=O)N[C@@H](Cc3ccccc3)C(=O)N[C@@H](CO)C(=O)N[C@@H](Cc3ccc(O)cc3)C(=O)N[C@@H](CCCNC(=N)N)C(=O)N[C@@H](CO)C(=O)N[C@@H](Cc3c[nH]c4ccccc34)C(=O)N[C@@H](CC(=O)O)C(=O)N[C@@H](CC(=O)O)C(=O)N[C@@H](Cc3ccccc3)C(=O)N2)CSSC[C@@H](C(=O)N[C@@H](CC(C)C)C(=O)N[C@@H](C)C(=O)N2CCC[C@H]2C(=O)N[C@@H](CCCNC(=N)N)C(=O)N[C@@H](CC(N)=O)C(=O)O)NC(=O)[C@H](CCCNC(=N)N)NC(=O)CNC(=O)[C@H](C(C)C)NC1=O [K149chemFE] (H-SCPDGFSYRSWDDFCCPMVGRCLAPRN-OH; disulfide 2-15, 16-22 (inferred); N-terminus assumed) |  | non-functional, silent binder | non-functional, silent binder | 0.85 |  |  | equal affinity |  |  | binding to C5 (C5 [3]; after reduction and capping of cysteines with iodoacetamide (loss of disulphide bonds)): entirely abrogated binding; Kd (C5 [3]; multi-cycle kinetics, n = 3 experiments, read-out: mean KD): 5.57 nM |
| GCPPGYKSGVDCSPGSECKWGCYAVDGRRYGGYGADSGVGS-OH (disulfide 2-18, 12-22) [K57chemFE] | potent and fully efficacious inhibitor | potent and fully efficacious inhibitor | potent and fully efficacious inhibitor | 0.65 | 0.000579 s⁻¹ | 260000 M⁻¹ s⁻¹ |  | potent and fully efficacious inhibitor | specific for human C5 |  |
| K8 chemFE cyclic: cyclic peptide from head-to-tail cyclisation of the K8chemFE knob domain (cyclo(VCPDGFNWGYGCAAGSSRFCTRHDWCCYDERADSHTYGFCTGNRV); also: disulphides formed by free energy method, pairing not given here) | functionally active complement inhibitor |  |  |  |  |  | bound human C5 | functionally active complement inhibitor |  |  |
| VCPDGFNWGYGCAAGSSRFCTRHDWCCYDERADSHTYGFCTGNRV-OH (disulfide 2-26, 12-40, 20-27) [K8chemFE] |  | partial inhibitor | partial inhibitor | 0.25 | 0.000385 s⁻¹ | 70500 M⁻¹ s⁻¹ |  |  | tightly bound | cross reactivity with rat C5 protein (rat C5 protein; listed as K8chem): cross reactive |
